Assay results reported in patent publication US8598159B2, “Therapeutic pyrazoloquinoline derivatives” (Dart Neuroscience (Cayman) Ltd., priority 2007, dated 2013).

How the values were obtained:
GABAA receptors = assay: Electrophysiology assay (two-electrode voltage clamp, Xenopus oocytes expressing GABAA receptors); assay type: cell-based; conditions: positive (Pos) or negative (Neg) modulation of current at GABA EC20, screening concentration of 10 μM
Procedure: The modulation of GABAA function is determined by changes in current as determined in an electrophysiology assay, as is detailed below.
mRNA was prepared from lyophilized plasmid pellets containing cDNA inserts encoding the specific GABAA receptor subunit. cDNAs encoding the α2, α3, and γ3 subunits were subcloned into pBluescript, SK^−. cDNAs encoding the a 1 and a 5 subunits were subcloned into prC while cDNA encoding the β2 subunit was subcloned into pcDNA1. The cDNA construct encoding the g 2s subunit is in the pGH19 expression construct. Overnight cultures of transformed DH5a bacterial cells were performed to grow sufficient quantities for maxiprep isolation of the plasmid cDNA. The resulting plasmid cDNA was linearized by digestion with an appropriate restriction enzyme that cleaves distal to the cDNA insert [XbaI (α1, β2), NotI (α3, γ2 s), SacII (α2), or ApaI (α5)]. Following digestion, plasmid cDNA was treated with proteinase K and extracted with phenol/chloroform/isoamyl alcohol, followed by ethanol precipitation. cDNA quality was assessed by agarose-gel electrophoresis (1.5% agarose gel). Samples were stored at −20° C. until use. In vitro transcription was performed with T7 RNA polymerase. mRNA was then stored at −80° C. until use. Plasmids were linearized with appropriate restriction enzymes before in vitro transcription using the Message Machine kit (Ambion, Austin, Tex.).
GABAA receptor expression in Xenopus oocytes: Following 45 min of 0.15% Tricaine anesthesia, an ovarian section containing the follicular oocytes was removed from the frog through a lateral abdominal incision. Oocytes were immediately placed in a calcium-free solution (NaCl 96 mM, MgCl2 1 mM, KCl 2 mM, Hepes 50 mM, pyruvate 2.5 mM, gentamycin 100 μg/mL, penicillin-streptomycin 50 U/mL, pH 7.4). Following 1.5-2 hour incubation in 0.2% collagenase (type II, Sigma Chemical Co., St. Louis, Mo.) at room temperature, individual Dumont stage V and VI oocytes were transferred to an incubator and maintained overnight in Barth's solution (NaCl 84 mM, NaHCO3 2.4 mM, MgSO4 0.82 mM, KCl 1 mM, Ca(NO3)2 0.33 mM, CaCl2 0.41 mM, Tris/HCl 7.5 mM, pyruvate 2.5 mM, gentamycin 50 μg/mL, penicillin-streptomycin, 100 units/mL, pH 7.4) at 18-20° C. and used for experiments 1-5 days post-injection. Oocytes were injected solution using an electronic microinjector (Drummond, Broomall, Pa.) with 50 nL of RNA containing 0.3-0.5 ng of each subunit RNA in a 1:1:2 ratio. The injected oocytes were used for experiments after 1-5 days of incubation in Barth's solution at 18-20° C.
Measurements of ion currents from oocytes expressing GABAA receptors were performed using a Warner two-electrode voltage-clamp amplifier (Warner Instruments, Inc., Foster City, Calif.) (Park-Chung, M. A., et al. (1999) Brain Res. 830: 72-87 incorporated herein in its entirety). Microelectrodes were fabricated from borosilicate glass capillaries with a programmed pipette puller (Sutter Instrument Co., CA). Microelectrode resistance was 1-3 MΩ when filled with 3 M KCl. The oocyte recording chamber was continuously perfused with ND-96 solution. Oocytes were clamped at a holding potential of −70 mV during data acquisition. The membrane current was filtered at 10 Hz and sampled at 100 Hz. Compounds were applied by a gravity-driven external perfusion system. The working volume of the recording chamber was […] and the rate of the perfusion was approximately […]. Compound application was 20-25 sec followed by a minimum of 150 sec wash. Data acquisition and external perfusion was computer controlled by custom-developed software. All experiments were performed at room temperature (22-24° C.). Dose-response data from each oocyte were fitted to the Hill equation by non-linear regression using the equation: IGABA=Emax/(1+(EC50/c)nH)
Emax is the maximum response, EC50 is the concentration producing 50% of the maximal response, nH is the Hill coefficient and c is the concentration of agonist. […]

[1] = molecular target: GABAA central benzodiazepine receptor; assay: Benzodiazepine binding assay ((3H)-flunitrazepam displacement); conditions: read-out: BZ binding assay (IC50); rat whole brain (except cerebellum), 1 nM (3H)-flunitrazepam, 60 minutes at 25° C.; 3-concentration dose response curve

**Q.** Which results are given for `CN1CCN(c2c(F)cc3c4nn(-c5ccccc5)c(=O)c-4c[nH]c3c2F)CC1` [44b, 6,8-Difluoro-7-(4-methyl-piperazin-1-yl)-2-phenyl-2,5-dihydro-pyrazolo [4,3-c]quinolin-3-one]?
**A.** EP Result (GABAA receptors): Pos; IC50 [1]: < 1 µM

**Q.** With `O=c1c2c[nH]c3c(F)c(N4CCOCC4)c(F)cc3c-2nn1-c1ccccc1` [44c, 6,8-Difluoro-7-(morpholin-4-yl)-2-phenyl-2,5-dihydro-pyrazolo[4,3-c]quinolin-3-one] as the molecule, how does the “EP Result” value (GABAA receptors) read?
**A.** Its value is “Pos”.

**Q.** What about the IC50 [1] of the same molecule?
**A.** Its IC50 is < 1 µM.

**Q.** `COc1ccc(-n2nc3c4cc(F)c(N5CCN(C)CC5)c(F)c4[nH]cc-3c2=O)cc1` [44d, 6,8-Difluoro-2-(4-methoxyphenyl)-7-(4-methylpiperazin-1-yl)-2,5-dihydro-pyrazolo[4,3-c]quinolin-3-one] was tested. Which “EP Result” value (GABAA receptors) did it give?
**A.** Its value is “Pos”.

**Q.** What about the IC50 [1] of the same molecule?
**A.** The IC50 was < 1 µM.
